In US20190100534A1, “Cephem Compounds with Latent Reactive Groups” (Gladius Pharmaceuticals, Inc., priority 2017, published 2019):

Tests used:
Assay in all cases: MIC determination, isogenic E. coli strains
Assay type in all cases: cell-based
[1] = test system: Isogenic E. coli J58 strain carrying DHA-1; settings: Escherichia coli, 18 h, read-out: Mimimum Inhibitory Concentrations, DHA-1
Procedure, shortened: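 MIC read as the lowest compound level giving a transparent well after 18 h at 37° C. Strains: parent E. coli J53 and isogenic transformants expressing plasmid-borne (pBC-SK(+)) beta-lactamases such as DHA-1; inoculum 0.5 McFarland; CAMH broth plus 20 μM apo-transferrin; compound 64 μg/mL downward, 2-fold dilutions.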

[2] = test system: Isogenic E. coli J58 strain carrying TEM-26; settings: Escherichia coli, 18 h, read-out: Mimimum Inhibitory Concentrations, TEM-26
Procedure, shortened: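 E. coli J53 carried a pBC-SK(+) plasmid expressing TEM-26 β-lactamase. Compounds were serially halved from […] in CAMH broth containing 20 μM apo-transferrin, inoculated from a 0.5 McFarland culture and held overnight (18 h, 37° C); MIC read as the lowest concentration without visible growth.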

[3] = test system: Isogenic E. coli J58 strain carrying CTX-M-14; settings: Escherichia coli, 18 h, read-out: Mimimum Inhibitory Concentrations, CTX-M-14
Procedure, shortened: (§1)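 Isogenic E. coli J53 carrying plasmid-encoded CTX-M-14 or CTX-M-15 (ampicillin-selected), standardized to 0.08-0.1 OD600, incubated overnight (18 h, 37° C.) in CAMH broth plus 20 μM apo-transferrin over 2-fold compound dilutions starting at 64 μg/mL. Lowest concentration with no visible growth recorded as MIC.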

[4] = test system: Isogenic E. coli J58 strain carrying CTX-M-15; settings: Escherichia coli, 18 h, read-out: Mimimum Inhibitory Concentrations, CTX-M-15
Procedure, shortened: as §1

[5] = test system: Isogenic E. coli J58 strain carrying VIM-2; settings: Escherichia coli, 18 h, read-out: Mimimum Inhibitory Concentrations, VIM-2
Procedure, shortened: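 Broth microdilution in cation-adjusted Mueller-Hinton with 20 μM apo-transferrin, compound serially halved from 64 μg/mL, read by eye after 18 h at 37 °C as lowest clear well. Inoculum: VIM-2-expressing E. coli J53 (pBC-SK(+) plasmid), adjusted to 0.5 McFarland.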

| Compound | MIC [1] [µg/mL] | MIC [2] [µg/mL] | MIC [3] [µg/mL] | MIC [4] [µg/mL] | MIC [5] [µg/mL] |
| --- | --- | --- | --- | --- | --- |
| CC(C)(O/N=C(\C(=O)N[C@@H]1C(=O)N2C(C(=O)O)=C(C=Cc3ccc(C[N+](C)(C)Cc4cc(O)c(O)c(Cl)c4)cc3)CS[C@H]12)c1csc(N)n1)C(=O)O (mixture of isomers) [Compound 436, N-(4-((E/Z)-2-((6R,7R)-7-((Z)-2-(2-aminothiazol-4-yl)-2-(((2-carboxypropan-2-yl)oxy)imino)acetamido)-2-carboxy-8-oxo-5-thia-1-azabicyclo[4.2.0]oct-2-en-3-yl)vinyl)benzyl)-1-(3-chloro-4,5-dihydroxyphenyl)-N,N-dimethylmethanaminium] | 0.25 | 2 | 1 | 0.5 | 1 |
| CC(C)(O/N=C(\C(=O)N[C@@H]1C(=O)N2C(C(=O)O)=C(C=Cc3ccc(C[n+]4ccc(NC(=O)c5ccc(O)c(O)c5)cc4)cc3)CS[C@H]12)c1csc(N)n1)C(=O)O (mixture of isomers) [Compound 427, 1-(4-((E/Z)-2-((6R,7R)-7-((Z)-2-(2-aminothiazol-4-yl)-2-(((2-carboxypropan-2-yl)oxy)imino)acetamido)-2-carboxy-8-oxo-5-thia-1-azabicyclo[4.2.0]oct-2-en-3-yl)vinyl)benzyl)-4-(3,4-dihydroxybenzamido)pyridin-1-ium] | 1 | 2 | 1 | 1 | 1 |
| CC(C)(O/N=C(\C(=O)N[C@@H]1C(=O)N2C(C(=O)O)=C(C=Cc3ccc(C[n+]4cccc(-c5ccc(O)c(O)c5)c4)cc3)CS[C@H]12)c1csc(N)n1)C(=O)O (mixture of isomers) [Compound 413, 1-(4-((E/Z)-2-((6R,7R)-7-((Z)-2-(2-aminothiazol-4-yl)-2-(((2-carboxypropan-2-yl)oxy)imino)acetamido)-2-carboxy-8-oxo-5-thia-1-azabicyclo[4.2.0]oct-2-en-3 yl)vinyl)benzyl)-3-(3,4-dihydroxyphenyl)pyridin-1-ium] | 0.13 | 1 | 2 | 2 | 0.5 |
| Cc1c[n+](Cc2ccc(C=CC3=C(C(=O)O)N4C(=O)[C@@H](NC(=O)/C(=N\OC(C)(C)C(=O)O)c5csc(N)n5)[C@H]4SC3)cc2)ccc1-c1ccc(O)c(O)c1 (mixture of isomers) [Compound 422, 1-(4-((E/Z)-2-((6R,7R)-7-((Z)-2-(2-aminothiazol-4-yl)-2-(((2-carboxypropan-2-yl)oxy)imino)acetamido)-2-carboxy-8-oxo-5-thia-1-azabicyclo[4.2.0]oct-2-en-3-yl)vinyl)benzyl)-4-(3,4-dihydroxyphenyl)-3-methylpyridin-1-ium] | 0.25 | 4 | 4 | 4 | 1 |
| CC(C)(O/N=C(\C(=O)N[C@@H]1C(=O)N2C(C(=O)O)=C(C=Cc3ccc(C[N+](C)(C)Cc4ccc(O)c(O)c4)cc3)CS[C@H]12)c1csc(N)n1)C(=O)O (mixture of isomers) [Compound 426, N-(4-((E/Z)-2-((6R,7R)-7-((Z)-2-(2-aminothiazol-4-yl)-2-(((2-carboxypropan-2-yl)oxy)imino)acetamido)-2-carboxy-8-oxo-5-thia-1-azabicyclo[4.2.0]oct-2-en-3-yl)vinyl)benzyl)-1-(3,4-dihydroxyphenyl)-N,N-dimethylmethanaminium] | 0.5 | 8 | 0.5 | 0.5 | 8 |
| CC(C)(O/N=C(\C(=O)N[C@@H]1C(=O)N2C(C(=O)O)=C(C=Cc3ccc(C[N+]4(C)Cc5cc(O)c(O)cc5C4)cc3)CS[C@H]12)c1csc(N)n1)C(=O)O (mixture of isomers) [Compound 424, 2-(4-((E/Z)-2-((6R,7R)-7-((Z)-2-(2-aminothiazol-4-yl)-2-(((2-carboxypropan-2-yl)oxy)imino)acetamido)-2-carboxy-8-oxo-5-thia-1-azabicyclo[4.2.0]oct-2-en-3-yl)vinyl)benzyl)-5,6-dihydroxy-2-methylisoindolin-2-ium] | 0.5 | 4 | 1 | 2 | 2 |
